Data as given in patent US20110318741A1, “BIOMARKERS FOR THE TREATMENT OF PSORIASIS” (priority 2010, published 2011).

Tested on: proinflammatory gene products in psoriasis lesional skin
Assay: mRNA abundance of inflammatory molecules in skin biopsies by real-time RT-PCR, normalized to hARP
Type: in vivo, human
Protocol: mRNA abundance for a variety of inflammatory molecules was measured by real-time RT-PCR and expression was normalized to the house-keeping gene HARP (human acidic ribosomal protein). Inflammatory markers assessed by mRNA levels included the chemokine CXCL9, beta-defensin (DEFB4), interferon-gamma, IL-10, IL-17a, IL-22, IL-8, keratin 16, MX-1, IL-12/23 p40, IL-23 p19, iNOS and TNF. These are inflammatory molecules produced by activated DC populations, Th1, Th17, Th22 T-cells and response genes to interferon (MX-1. CXCL9) or IL-17 (defensin). Keratin 16 was also measured by mRNA levels to assess the epidermal response by an alternate means.
The pharmacodynamic effects of (S)—N-(2-(1-(3-ethoxy-4-methoxyphenyl)-2-(methylsulfonyl)ethyl)-1,3-dioxoisoindolin-4-yl)acetamide were studied in skin biopsies from subjects treated with the compound in a phase 2, multi-center, open-label study evaluating the safety, tolerability, and efficacy of the compound in recalcitrant psoriasis vulgaris. Skin biopsies were taken from uninvolved and involved skin at baseline, and from involved skin after treatment with (S)—N-(2-(1-(3-ethoxy-4-methoxyphenyl)-2-(methylsulfonyl)ethyl)-1,3-dioxoisoindolin-4-yl)acetamide 20 mg BID after 4 and 12 weeks.
The expression of proinflammatory gene products known to be involved in the pathogenesis of psoriasis was measured by real-time polymerase chain reaction (RT-PCR). With regard to gene expression, there were reductions in iNOS and IL-12/IL-23 p40 mRNAs along with reductions in IL-17A and IL-22 mRNAs, indicating inhibition of the Th1, Th17, and Th22 pathways (FIG. 5). […] Normalized IL-17A mRNA levels were reduced by 49% at week 12 and normalized IL-22 mRNA levels were reduced by 100% at week 12. DEFB4, a defensin induced in keratinocytes by IL-17, was reduced by 55% in week 4 biopsies and by 82% in week 12 biopsies. IL-8, which is induced in keratinocytes by IL-17, was reduced by 76% in week 4 biopsies and by 66% in week 12 biopsies.

[1] = Week 4, 20 mg BID, subjects also with PASI values, No. 17
[2] = Week 4, 20 mg BID, subjects also with PASI values, No. 18
[3] = Week 12, 20 mg BID, subjects also with PASI values, No. 10
[4] = Week 12, 20 mg BID, subjects also with PASI values, No. 11
[5] = Week 12, 20 mg BID, subjects also with PASI values, No. 14

## CCOc1cc([C@@H](CS(C)(=O)=O)N2C(=O)c3cccc(NC(C)=O)c3C2=O)ccc1OC [(S)—N-(2-(1-(3-ethoxy-4-methoxyphenyl)-2-(methylsulfonyl)ethyl)-1,3-dioxoisoindolin-4-yl)acetamide]
[1]
  CXCL9/hARP: Gene Expression Median Change (%): −30.7%
  MX1/hARP: Gene Expression Median Change (%): −51.1%
  TNFα/hARP: Gene Expression Median Change (%): −13.0%
[2]
  IL-8/hARP: Gene Expression Median Change (%): −76.4%
  IL-10/hARP: Gene Expression Median Change (%): −49.1%
  K16/hARP: Gene Expression Median Change (%): −62.0%
  p19/hARP: Gene Expression Median Change (%): −53.4%
Week 4, 20 mg b.i.d.
  CXCL9 (MIG) mRNA: Median % change from baseline (normalized to hARP): −30.7%
  DEFB4 mRNA: Median % change from baseline (normalized to hARP): −55.4%
  IFN-g mRNA: Median % change from baseline (normalized to hARP): −38.2%
  IL-8 mRNA: Median % change from baseline (normalized to hARP): −76.4%
  IL-10 mRNA: Median % change from baseline (normalized to hARP): −49.1%
  IL-12/IL-23 p40 mRNA: Median % change from baseline (normalized to hARP): −100%
  IL-17A mRNA: Median % change from baseline (normalized to hARP): −72.5%
  IL-22 mRNA: Median % change from baseline (normalized to hARP): −74.4%
  IL-23p19 mRNA: Median % change from baseline (normalized to hARP): −53.4%
  K-16 mRNA: Median % change from baseline (normalized to hARP): −62.0%
  MX-1 mRNA: Median % change from baseline (normalized to hARP): −51.1%
  iNOS mRNA: Median % change from baseline (normalized to hARP): −61.0%
  median reduction in normalized MX-1 mRNA: 51%
  reduction of normalized iNOS mRNA expression: 61%
Week 12, 20 mg BID, subjects also with PASI values, No. 6
  IL-22/hARP: Gene Expression Median Change (%): −100%
Week 12, 20 mg BID, subjects also with PASI values, No. 7
  p40/hARP: Gene Expression Median Change (%): −51.5%
[3]
  DEFB4/hARP: Gene Expression Median Change (%): −82.0%
  IL-2/hARP: Gene Expression Median Change (%): −25.0%
  IL-17A/hARP: Gene Expression Median Change (%): −46.7%
[4]
  CD83/hARP: Gene Expression Median Change (%): 27.39%
  CXCL9/hARP: Gene Expression Median Change (%): −15.8%
  MX1/hARP: Gene Expression Median Change (%): −51.5%
  iNOS/hARP: Gene Expression Median Change (%): −100%
Week 12, 20 mg BID, subjects also with PASI values, No. 12
  IFNγ/hARP: Gene Expression Median Change (%): −15.3%
Week 12, 20 mg BID, subjects also with PASI values, No. 13
  TNFα/hARP: Gene Expression Median Change (%): −41.3%
[5]
  IL-8/hARP: Gene Expression Median Change (%): −79.2%
  IL-10/hARP: Gene Expression Median Change (%): −15.3%
  K16/hARP: Gene Expression Median Change (%): −82.5%
  p19/hARP: Gene Expression Median Change (%): −67.9%
Week 12, 20 mg b.i.d.
  CXCL9 (MIG) mRNA: Median % change from baseline (normalized to hARP): −36.4%
  DEFB4 mRNA: Median % change from baseline (normalized to hARP): −82.3%
  IFN-g mRNA: Median % change from baseline (normalized to hARP): −37.6%
  IL-8 mRNA: Median % change from baseline (normalized to hARP): −66.5%
  IL-10 mRNA: Median % change from baseline (normalized to hARP): −26.5%
  IL-12/IL-23 p40 mRNA: Median % change from baseline (normalized to hARP): −86.7%
  IL-17A mRNA: Median % change from baseline (normalized to hARP): −49.4%
  IL-22 mRNA: Median % change from baseline (normalized to hARP): −100%
  IL-23p19 mRNA: Median % change from baseline (normalized to hARP): −68.3%
  K-16 mRNA: Median % change from baseline (normalized to hARP): −78.6%
  MX-1 mRNA: Median % change from baseline (normalized to hARP): −52.6%
  iNOS mRNA: Median % change from baseline (normalized to hARP): −100%
  median reduction in K16 mRNA: 78%
  reduction in normalized MX-1 mRNA: 52%
  reduction of normalized IL-17A mRNA levels: 49%
  reduction of normalized IL-22 mRNA levels: 100%
  reduction of normalized iNOS mRNA expression: 100%
Week 4, the three subjects who attained a PASI-75 or better at week 12
  reduction in IFN-γ gene expression in the skin: 100%
Week 4 and week 12 biopsies, 20 mg b.i.d.
  IL-12/23 p40 mRNA levels: significant reductions
Week 4 biopsies, 20 mg b.i.d.
  reduction of normalized expression of IL-8: 76%
Week 12, 20 mg BID
  inhibition of gene expression, responders vs non-responders: greater among responders
Week 12 biopsies, 20 mg b.i.d.
  reduction of normalized expression of IL-8: 66%
